Results: paper PMC11243625, “Synthesis, Docking, and Machine Learning Studies of Some Novel Quinolinesulfonamides–Triazole Hybrids with Anticancer Activity” (Molecules, 2024)
Entries after “also recorded” stand apart in the source; their conditions may differ. Read-outs that look alike come from different tables or passages of the source.

Legend:
[1] = tested on: NHDF; experiment: WST-1 test, normal human dermal fibroblasts; assay type: cell-based; conditions: 72 h, WST-1, normal cells; for IC50: Homo sapiens, NHDF
Experimental: (§1) Hybrids 4–14 were tested as anticancer agents against four human cancer cell lines: colon cancer (Caco-2), glioblastoma (SNB-19), lung cancer (A549), ovarian cancer (SKOV-3), and normal human dermal fibroblasts (NHDFs). Cisplatin was used as the reference substance. The results are presented as the compound concentration of the compound (μM) that inhibits the growth of 50% of cancer cells compared to control cells (IC50). A negative value (Neg) means that the compound concentration of the tested hybrids was greater than 500 µM. […] It is generated only by a weak van der Waals interaction with Arg84. […] There is also a visible difference in activity depending on the type of group present on the triazole ring (substituent C in Figure 2). The results obtained indicate that hybrids containing aromatic systems as a C substituent in their structure, especially another quinoline molecule (compounds 9 and 10), have high activity.
(§2) Cell cultures were performed in 96-well plates (Nunc Thermo Fisher Scientific, Waltham, MA, USA). Cells were seeded at 5 × 10^4/well and incubated for 24 h (at 37 °C, 5% CO2, and constant humidity). The medium was replaced with fresh with the addition of test compounds at a concentration of 0.1–100 µg/mL of DMSO and incubated again for another 72 h. After this time, the WST-1 test (Roche Molecular Biochemicals, Mannheim, Germany) was performed to assess the metabolic activity of the cells. Absorbance was measured at λ = 450 nm using a UVM340 microplate reader (Biogenet, Józefów, Poland). Results are expressed as the mean value of at least three independent experiments performed in triplicate.

[2] = tested on: Caco-2; experiment: WST-1 test, colon cancer cells; assay type: cell-based, human
Experimental: Hybrids 4–14 were tested as anticancer agents against four human cancer cell lines: colon cancer (Caco-2), glioblastoma (SNB-19), lung cancer (A549), ovarian cancer (SKOV-3), and normal human dermal fibroblasts (NHDFs).
as §2

[3] = tested on: A549; experiment: WST-1 test, lung cancer cells; assay type: cell-based, human; conditions: for IC50: Homo sapiens, A549, 72 h, read-out: IC50 A-549
Experimental: as §1, §2

[4] = tested on: SKOV-3; experiment: WST-1 test, ovarian cancer cells; assay type: cell-based, human; conditions: Homo sapiens, SK-OV-3, 72 h
Experimental: as §1, §2

[5] = tested on: SNB-19; experiment: WST-1 test, glioblastoma cells; assay type: cell-based, human
Experimental: as §1, §2

[6] = tested on: A549; parameters: method as in doi:10.1016/j.arabjc.2016.10.009; conditions: values marked *; read-out: IC50 A-549; cited from earlier work

Work on `CN(Cc1cn(CSc2ccccc2)nn1)S(=O)(=O)c1cccc2cccnc12` [Compound 8b, 8-N-Methyl-N-[(1-methylthiophenyl-1H-1,2,3-triazol-4-yl)methyl]quinolinesulfonamide] yielded an IC50 [1] of over 500 µM, an IC50 ([2]; Homo sapiens, Caco-2, 72 h) of 0.34 µM and an IC50 [3] of over 500 µM. The melting point was 118 to 119 °C, the IC50 [4] was over 500 µM and the IC50 ([5]; 72 h) was 0.35 µM. The IC50 ([5]; Homo sapiens, SNB-19, 72 h) was at most 0.4 µM.
In the case of `O=S(=O)(NCc1cn(-c2ccnc3cc(Cl)ccc23)nn1)c1cccc2cccnc12` [Compound 9a, 8-N-{[1-(7-chloroquinolin-4-yl)-1H-1,2,3-triazol-4-yl]methyl}quinolinesulfonamide], the IC50 [6] is listed as over 500 µM, the IC50 [1] is listed as over 500 µM and the IC50 ([2]; Homo sapiens, Caco-2, 72 h) is listed as 18 µM. It also gave an IC50 [4] of 108 µM and an IC50 ([5]; Homo sapiens, SNB-19, 72 h) of 62.4 µM.
With `CN(Cc1cn(-c2ccnc3cc(Cl)ccc23)nn1)S(=O)(=O)c1cccc2cccnc12` [Compound 9b, 8-N-Methyl-N-{[1-(7-chloroquinolin-4-yl)-1H-1,2,3-triazol-4-yl]methyl}quinolinesulfonamide] the “IC50 NHDF” value [1] was “lack of cytotoxicity; also recorded: no activity towards NHDF”, the IC50 [1] was over 500 µM and the IC50 ([2]; Homo sapiens, Caco-2, 72 h) was 0.26 µM. For the same compound, the “IC50 A-549” value ([3]; 72 h) was “nanomolar concentration range”, the IC50 [3] was 0.4 µM and the melting point was 189 to 190 °C. It also gave an IC50 [4] of 4.16 µM, an IC50 ([5]; 72 h) of 0.38 µM and an IC50 ([5]; Homo sapiens, SNB-19, 72 h) of at most 0.4 µM.
Compound `O=S(=O)(NCc1cn(-c2ccnc3c(Br)cccc23)nn1)c1cccc2cccnc12` [Compound 10a, 8-N-{[1-(8-Bromoquinolin-4-yl)-1H-1,2,3-triazol-4-yl]methyl}quinolinesulfonamide] has an IC50 [1] of over 500 µM, an IC50 ([2]; Homo sapiens, Caco-2, 72 h) of 9.69 µM and an IC50 [3] of 113 µM. It also gave a melting point of 194 to 195 °C, an IC50 [4] of 94.5 µM and an IC50 ([5]; Homo sapiens, SNB-19, 72 h) of 37.4 µM.
For `CN(Cc1cn(-c2ccnc3c(Br)cccc23)nn1)S(=O)(=O)c1cccc2cccnc12` [Compound 10b, 8-N-Methyl-N-{[1-(8-bromoquinolin-4-yl)-1H-1,2,3-triazol-4-yl]methyl}quinolinesulfonamide], the “IC50 NHDF” value [1] was “have activity against normal cells”, the IC50 [1] was 26.2 µM and the IC50 ([2]; 72 h) was 0.3 µM. The IC50 ([2]; Homo sapiens, Caco-2, 72 h) was at least 0.3 µM, the IC50 [3] was 1.77 µM and the melting point was 206 to 207 °C. It also gave an IC50 [4] of 24.7 µM, an IC50 ([5]; 72 h) of 0.3 µM and an IC50 ([5]; Homo sapiens, SNB-19, 72 h) of at most 0.4 µM.
For `Cc1cn(C2CC(n3cc(CNS(=O)(=O)c4cccc5cccnc45)nn3)C(CO)O2)c(=O)[nH]c1=O` [Compound 11a, 8-N-({1-[(2R, 3S, 5S)-2-(Hydroxymethyl)-5-(5-methyl-2,4-dioxo-3,4-dihydropyrimidin-1(2H)-yl)tertrahydrofuran-3-yl]-1H-1,2,3-triazol-4-yl}methyl)quinolinesulfonamide], the IC50 [1] was 195 µM, the IC50 ([2]; Homo sapiens, Caco-2, 72 h) was 0.36 µM and the IC50 [3] was 18.1 µM. The melting point was 149 to 150 °C, the IC50 [4] was 143 µM and the IC50 ([5]; Homo sapiens, SNB-19, 72 h) was 129 µM.
For `Cc1cn(C2CC(n3cc(CN(C)S(=O)(=O)c4cccc5cccnc45)nn3)C(CO)O2)c(=O)[nH]c1=O` [Compound 11b, 8-N-Methyl-N-({1-[(2R, 3S, 5S)-2-(hydroxymethyl)-5-(5-methyl-2,4-dioxo-3,4-dihydropyrimidin-1(2H)-yl)tertrahydrofuran-3-yl]-1H-1,2,3-triazol-4-yl}methyl)quinolinesulfonamide], the “IC50 NHDF” value [1] was “have activity against normal cells”, the IC50 [1] was 98.3 µM and the IC50 ([2]; Homo sapiens, Caco-2, 72 h) was 0.48 µM. It also gave an IC50 [3] of 1.29 µM, a melting point of 176 to 178 °C and an IC50 [4] of 7.16 µM. For the same compound, the IC50 ([5]; Homo sapiens, SNB-19, 72 h) was 0.59 µM.
`CCCCn1cc(CN(C)S(=O)(=O)c2cccc3cccnc23)nn1` [Compound 12b, 8-N-Methyl-N-{[1-(1-butyl)-1H-1,2,3-triazol-4-yl]methyl}quinolinesulfonamide] gave an IC50 [1] of 242 µM, an IC50 ([2]; Homo sapiens, Caco-2, 72 h) of 1.29 µM and an IC50 [3] of 189 µM. It also gave a melting point of 74 to 75 °C, an IC50 [4] of 80.4 µM and an IC50 ([5]; Homo sapiens, SNB-19, 72 h) of 63.6 µM.
Compound `CCOC(=O)CCn1cc(CN(C)S(=O)(=O)c2cccc3cccnc23)nn1` [Compound 13b, Ethyl 3-{[4-(N-methylsulfamoyl-8-quinolyl)methyl]-1H-1,2,3-triazol-1-yl}propanoate] has an IC50 [1] of over 500 µM, an IC50 ([2]; Homo sapiens, Caco-2, 72 h) of 85.2 µM and an IC50 [3] of over 500 µM. The IC50 [4] was 88.2 µM and the IC50 ([5]; Homo sapiens, SNB-19, 72 h) was 138 µM.
Compound `C=C(Cn1cc(CNS(=O)(=O)c2cccc3cccnc23)nn1)[C@@H]1CC[C@]2(COC(C)=O)CC[C@]3(C)[C@H](CC[C@@H]4[C@@]5(C)CC[C@H](OC(C)=O)C(C)(C)[C@@H]5CC[C@]43C)[C@@H]12` [Compound 14a, 8-N-({1-[3β, 28-Diacetoxylup-20(29)-en-30-yl]-1H-1,2,3-triazol-4-yl}methyl)-quinolinesulfonamide] has an IC50 [1] of over 500 µM, an IC50 ([2]; Homo sapiens, Caco-2, 72 h) of over 500 µM and an IC50 [3] of over 500 µM. The melting point was 148 to 149 °C, the IC50 [4] was over 500 µM and the IC50 ([5]; Homo sapiens, SNB-19, 72 h) was 101 µM.
